Test results as given in US20220175761A1, “BI-LIGAND DRUG CONJUGATE AND USE THEREOF” (COHERENT BIOPHARMA (SUZHOU), LIMITED, priority 2019, published 2022).
Numbered stars: 1 amine (or outer) side, 2 acyl side, 3 side chain; on linkers, the order of the positions; unused ones are H or OH. Bridge positions count the residues as written; N and C are the ends. Square brackets hold non-standard residues; d marks the D form. Side chains are listed from the residue outwards. Peptide text beside a SMILES is read from it. I, II: the chains in the order shown. * marks the point of attachment. EuK = O=C(O)CC[C@H](NC(=O)N[C@@H](CCCCN*)C(=O)O)C(=O)O; Pteroyl = Nc1nc2ncc(CNc3ccc(C(=O)*)cc3)nc2c(=O)[nH]1; Dolaproine = CO[C@@H]([C@@H]1CCCN1)[C@@H](C)C(=O)O; Dil = CC[C@H](C)[C@H](NC)[C@@H](CC(=O)O)OC; X3 = O=C1CC([*:2])C(=O)N1CCCCCC(=O)[*:1]; γGlu = O=C(O)[C@H](CCC(=O)[*:2])N[*:1]; PABC = O=C(OCc1ccc(N[*:1])cc1)[*:2]; X1 = C[C@@H](N*)[C@@H](O)c1ccccc1; X2 = O=C(Cc1ccc(CN[*:1])cc1)[*:2]; Cit = NC(=O)NCCC[C@H](N)C(=O)O; NMeV = CN[C@H](C(=O)O)C(C)C; CO = O=C([*:1])[*:2]

Columns and labels:
[1] = test system: A549, Hela, SCLC-21H, U-2 OS, T-47D and NCI-H460 tumor cell lines; assay: Inhibition of tumor cell expansion, CCK8 (CB-18G); type: cell-based, human
Procedure: Cell lines: A549 human lung cancer cells, Hela human cervical cancer cells, SCLC-21H small cell lung cancer cells, U-2 OS human osteosarcoma cells, T-47D human breast cancer cells and NCI-H460 human lung cancer cells
The cells were prepared in advance, digested with trypsin, collected and counted; diluted with a complete cell culture medium, A549 cells, Hela cells, SCLC-21H cells and U-2 OS cells were plated at a density of 2×10^4 cells/ml, and T-47D cells and NCI-H460 cells were plated at a density of 3×10^4 cells/ml in 96-well plates; to each well of the 96-well plates, 100 μl of the diluted cell solution was added; and negative control and blank control wells were set on each plate. The 96-well plates added with the cells were placed in an incubator at 37° C., 5% CO2 for culturing overnight.
The samples were diluted with a culture medium to desired concentrations (see Table 15). […]
(§1) To each well, 15 μl (10% of the liquid volume in a well) of a color developing solution from CCK-8 was added; the plates were incubated at 37° C. for an appropriate time (try to keep the OD value in the range of 1.0-2.0); the covers of the 96-well plates were removed, and the plates were read at 450 nm on a microplate reader (Molecular Devices Spectra MAX Plus). […]

[2] = test system: KB, PC-9, SPC-A1, CALU-3 and DU145 cell lines (CDX tumor models); assay: Pharmacodynamic study of CB-18G in CDX models; type: in vivo, BALB/c-nude mice; conditions: tail vein injection
Procedure: CB-18G lyophilized powder was weighed, dissolved with PBS and prepared into a sample mother solution, and the mother solution was diluted with a physiological saline for injection to a sample solution with a working concentration for later use.
Main cell lines: KB human oral epidermoid carcinoma cells, PC-9 human lung cancer cells, SPC-A1 human lung adenocarcinoma cells, CALU-3 human lung adenocarcinoma cells and DU145 human prostate cancer cells
(§2) Model construction: The cells were resuscitated, cultured, collected and counted, and the cell solution was subcutaneously injected into the right flank of BALB/c-nude mice. When the tumor grew and expanded to 80-160 mm^3, grouping and administration were performed, or rapidly expanded tumor masses were transferred and injected to mice for scale up.
(§3) Grouping: When the tumor grew to about 80-160 mm^3 on average, a grouping was performed, and a model control group and different doses of administration groups were set.
(§4) Administration: The mice were administrated via tail vein injection.
(§5) The weight of mice and the long diameter (a) and short diameter (b) of tumor mass were measured twice a week. The formula for the calculation of tumor volume (TV) is: TV=½×a×b^2.

[3] = test system: A549, HuH-7, KB, LNcap, DU145 and T-47D tumor cell lines; assay: Inhibition of tumor cell expansion, CCK8 (CB-20B); type: cell-based, human
Procedure: Cell lines: A549 human lung cancer cells, HuH-7 human liver cancer cells, KB human oral epidermoid carcinoma cells, LNCaP human prostate cancer cells, DU145 human prostate cancer cells and T-47D human breast cancer cells
The cells were prepared in advance, digested with trypsin, collected and counted; diluted with a complete cell culture medium, A549 cells, HuH-7 cells, KB cells and DU145 cells were plated at a density of 2×10^4 cells/ml, T-47D cells were plated at a density of 1×10^5 cells/ml, and LNCaP cells were plated at a density of 6×10^4 cells/ml in 96-well plates; 100 μl of the diluted cell solution was added to each well; and negative control and blank control wells were set on each plate. The 96-well plates added with the cells were placed in an incubator at 37° C., 5% CO2 for culturing overnight.
The samples were diluted with a culture medium to desired concentrations (see Table 11). […]
as §1

[4] = test system: KB, PC-9 and DU145 cell lines (CDX tumor models); assay: Pharmacodynamic study of CB-20B in CDX models; type: in vivo, BALB/c-nude mice; conditions: tail vein injection
Procedure: CB-20B lyophilized powder was weighed, dissolved with PBS and prepared into a sample mother solution, and the mother solution was diluted with a physiological saline for injection to a sample solution with a working concentration for later use.
Main cell lines: KB human oral epidermoid carcinoma cells, PC-9 human lung cancer cells and DU145 human prostate cancer cells.
as §2, with “collected,” for “collected and”, “and” for “and the cell solution was”
as §3, §4, §5

Compound	inhibitory effect on growth and expansion of tumor cell lines ([1]; 72 hours, CCK-8)	IC50 compared between cell lines ([1]; Hela versus NCI-H460)	inhibitory effect in CDX tumor models (tumor volume) [2]	inhibitory effect on growth and expansion of tumor cell lines ([3]; 72 hours, CCK-8)	IC50 compared between cell lines ([3]; T-47D, LNcap, KB, HuH-7 and DU145 versus A549)	inhibitory effect in CDX tumor models (tumor volume) [4]
CCCC(=O)N[C@@H](Cc1ccccc1)C(=O)N[C@H]1CSSC[C@@H](C(=O)N[C@H](C(=O)N[C@@H](CCCCNC(=O)[C@H](CCC(=O)O)NC(=O)CCOCCOCCOCCOCCNC(=O)[C@H](CCC(=O)O)NC(=O)[C@H](CSC2CC(=O)N(CCCCCC(=O)N[C@H](C(=O)NC(CCCNC(N)=O)C(=O)Nc3ccc(COC(=O)N(C)[C@H](C(=O)N[C@H](C(=O)N(C)[C@@H]([C@@H](C)CC)[C@@H](CC(=O)N4CCC[C@H]4[C@H](OC)[C@@H](C)C(=O)N[C@H](C)[C@@H](O)c4ccccc4)OC)C(C)C)C(C)C)cc3)C(C)C)C2=O)NC(=O)CC[C@H](NC(=O)c2ccc(NCc3cnc4[nH]c(N)nc(=O)c4n3)cc2)C(=O)O)C(N)=O)[C@@H](C)O)NC(=O)[C@H]([C@@H](C)O)NC(=O)[C@H](CCCCN)NC(=O)[C@H](Cc2c[nH]c3ccccc23)NC(=O)[C@H](Cc2ccc(O)cc2)NC1=O (stereo partly drawn) [CB-18G]	has an inhibitory effect	significantly lower	good inhibitory effect	–	–	–
CC[C@H](C)[C@@H]([C@@H](CC(=O)N1CCC[C@H]1[C@H](OC)[C@@H](C)C(=O)N[C@H](C)[C@@H](O)c1ccccc1)OC)N(C)C(=O)[C@@H](NC(=O)[C@H](C(C)C)N(C)C(=O)OCc1ccc(NC(=O)[C@H](CCCNC(N)=O)NC(=O)[C@@H](NC(=O)CCCCCN2C(=O)CC(SC[C@H](NC(=O)[C@H](CC(=O)O)NC(=O)[C@H](CC(=O)O)NC(=O)Cc3ccc(CNC(=O)NCCCC[C@H](NC(=O)N[C@@H](CCC(=O)O)C(=O)O)C(=O)O)cc3)C(=O)N[C@@H](CCCCNC(=O)CC[C@H](NC(=O)c3ccc(NCc4cnc5[nH]c(N)nc(=O)c5n4)cc3)C(=O)O)C(N)=O)C2=O)C(C)C)cc1)C(C)C (stereo partly drawn) [CB-20B] (I: V[Cit][PABC][NMeV]V[Dil][Dolaproine]-X1 / II: {EuK-CO}-[X2]DDCK([γGlu-Pteroyl])-NH2; linker I:N-II:4 via X3)	–	–	–	has an inhibitory effect	significantly lower	good inhibitory effect
